Assay results published in patent US20260248134A1, “A METHOD FOR CONTROLLING WEEDS” (UPL MAURITIUS LIMITED, priority 2023, published 2026).

How the values were obtained:
Format in all cases: in vivo
Ambrosia artemisifolia = assay: Control of Ambrosia artemisifolia weed at different application rates (Example 4)
Source text: The effect of application of asulam was observed on the growth of Ambrosia artemisifolia weed at 28, 35 and 49 DAA (days after application) at different application rates. The percentage (%) control of weeds has been evaluated and disclosed in Table 4.

Ipomoea hederifolia [1] = assay: Control of Ipomoea hederifolia weed at different application rates (Example 6)
Source text: The effect of application of asulam was observed on the growth of Ipomoea hederifolia weed at 21, 28 and 35 DAA (days after application) at different application rates. The percentage (%) control of weeds has been evaluated and disclosed in Table 6.

Raphanus raphanistrum [2] = assay: Control of Raphanus raphanistrum weed by asulam alone, with adjuvant, with additional herbicide (Example 2); details: 4500 g a.i/ha
Protocol: The effect of application of asulam alone, asulam along with an adjuvant, and asulam along with an additional herbicide was observed on the growth of Raphanus raphanistrum weed at 42, 49, 56 and 63 DAA (days after application). The percentage (%) control of weeds was evaluated to assess the efficacy of the compositions and the same has been disclosed in Table 2. Untreated control was also compared, wherein no herbicidal composition was applied and thus, no control of weeds was observed.

Avena strigose [3] = assay: Control of Avena strigose weed at different application rates (Example 8)
Source text: The effect of application of asulam was observed on the growth of Avena strigose weed at 28, 35 and 49 DAA (days after application) at different application rates. The percentage (%) control of weeds has been evaluated and disclosed in Table 8.

Eleusine indica = assay: Control of weeds at pre-emergence stage (Example 9)
Source text: (§1) The effect of application of asulam was observed on the growth of weeds at pre-emergence stage for different application rates. The percentage (%) control of weeds has been evaluated and disclosed in Table 9.

Digitaria insularis = assay: as above
Source text: as §1

Ipomoea hederifolia [4] = assay: Control of Ipomoea hederifolia weed by asulam alone, with adjuvant, with additional herbicide (Example 1); details: 4500 g a.i/ha
Protocol: The effect of application of asulam alone, asulam along with an adjuvant, and asulam along with an additional herbicide was observed on the growth of Ipomoea hederifolia weed at 42, 49, 56 and 63 DAA (days after application). The percentage (%) control of weeds was evaluated to assess the efficacy of the compositions and the same has been disclosed in Table 1. Untreated control was also compared, wherein no herbicidal composition was applied and thus, no control of weeds was observed.

Megathyrsus maximus = assay: Control of Megathyrsus maximus weed at different application rates (Example 5)
Source text: The effect of application of asulam was observed on the growth of Megathyrsus maximus weed at 14 and 21 DAA (days after application) at different application rates. The percentage (%) control of weeds has been evaluated and disclosed in Table 5.

Raphanus raphanistrum [5] = assay: Control of Raphanus raphanistrum weed at different application rates (Example 7)
Source text: The effect of application of asulam was observed on the growth of Raphanus raphanistrum weed at 14, 21 and 28 DAA (days after application) at different application rates. The percentage (%) control of weeds has been evaluated and disclosed in Table 7.

Avena strigose [6] = assay: Control of Avena strigose weed by asulam alone, with adjuvant, with additional herbicide (Example 3); details: 4500 g a.i/ha
Protocol: The effect of application of asulam alone, asulam along with an adjuvant, and asulam along with an additional herbicide was observed on the growth of Avena strigose weed at 42, 49, 56 and 63 DAA (days after application). The percentage (%) control of weeds was evaluated to assess the efficacy of the compositions and the same has been disclosed in Table 3. Untreated control was also compared, wherein no herbicidal composition was applied and thus, no control of weeds was observed.

Structure (SMILES): COC(=O)NS(=O)(=O)c1ccc(N)cc1 [Asulam, asulam]
- Control of Ambrosia Artemisifolia (Ambrosia artemisifolia; 1200 g a.i/ha, 28 DAA): 86%
- Control of Ambrosia Artemisifolia (Ambrosia artemisifolia; 1200 g a.i/ha, 35 DAA): 87%
- Control of Ambrosia Artemisifolia (Ambrosia artemisifolia; 1200 g a.i/ha, 49 DAA): 90%
- Control of Ambrosia Artemisifolia (Ambrosia artemisifolia; 1500 g a.i/ha, 28 DAA): 91%
- Control of Ambrosia Artemisifolia (Ambrosia artemisifolia; 1500 g a.i/ha, 35 DAA): 90%
- Control of Ambrosia Artemisifolia (Ambrosia artemisifolia; 1500 g a.i/ha, 49 DAA): 91%
- Control of Ambrosia Artemisifolia (Ambrosia artemisifolia; 2250 g a.i/ha, 28 DAA): 93%
- Control of Ambrosia Artemisifolia (Ambrosia artemisifolia; 2250 g a.i/ha, 35 DAA): 94%
- Control of Ambrosia Artemisifolia (Ambrosia artemisifolia; 2250 g a.i/ha, 49 DAA): 99%
- Control of Ambrosia Artemisifolia (Ambrosia artemisifolia; 2500 g a.i/ha, 28 DAA): 92%
- Control of Ambrosia Artemisifolia (Ambrosia artemisifolia; 2500 g a.i/ha, 35 DAA): 93%
- Control of Ambrosia Artemisifolia (Ambrosia artemisifolia; 2500 g a.i/ha, 49 DAA): 99%
- Control of Ipomoea hederifolia (Ipomoea hederifolia [1]; 1800 g a.i/ha, 21 DAA): 63%
- Control of Ipomoea hederifolia (Ipomoea hederifolia [1]; 1800 g a.i/ha, 28 DAA): 77%
- Control of Ipomoea hederifolia (Ipomoea hederifolia [1]; 1800 g a.i/ha, 35 DAA): 76%
- Control of Ipomoea hederifolia (Ipomoea hederifolia [1]; 2250 g a.i/ha, 21 DAA): 71%
- Control of Ipomoea hederifolia (Ipomoea hederifolia [1]; 2250 g a.i/ha, 28 DAA): 83%
- Control of Ipomoea hederifolia (Ipomoea hederifolia [1]; 2250 g a.i/ha, 35 DAA): 85%
- Control of Ipomoea hederifolia (Ipomoea hederifolia [1]; 2500 g a.i/ha, 21 DAA): 70%
- Control of Ipomoea hederifolia (Ipomoea hederifolia [1]; 2500 g a.i/ha, 28 DAA): 84%
- Control of Ipomoea hederifolia (Ipomoea hederifolia [1]; 2500 g a.i/ha, 35 DAA): 88%
- Control of Raphanus raphanistrum (Raphanus raphanistrum [2]; 42 DAA): 71.3%
- Control of Raphanus raphanistrum (Raphanus raphanistrum [2]; 49 DAA): 68.8%
- Control of Raphanus raphanistrum (Raphanus raphanistrum [2]; 56 DAA): 66.3%
- Control of Avena strigose (Avena strigose [3]; 1200 g a.i/ha, 28 DAA): 81%
- Control of Avena strigose (Avena strigose [3]; 1200 g a.i/ha, 35 DAA): 84%
- Control of Avena strigose (Avena strigose [3]; 1200 g a.i/ha, 49 DAA): 81%
- Control of Avena strigose (Avena strigose [3]; 1500 g a.i/ha, 28 DAA): 86%
- Control of Avena strigose (Avena strigose [3]; 1500 g a.i/ha, 35 DAA): 89%
- Control of Avena strigose (Avena strigose [3]; 1500 g a.i/ha, 49 DAA): 89%
- Control of Avena strigose (Avena strigose [3]; 1800 g a.i/ha, 28 DAA): 96%
- Control of Avena strigose (Avena strigose [3]; 1800 g a.i/ha, 35 DAA): 99%
- Control of Avena strigose (Avena strigose [3]; 1800 g a.i/ha, 49 DAA): 99%
- Control of Avena strigose (Avena strigose [3]; 2250 g a.i/ha, 28 DAA): 95%
- Control of Avena strigose (Avena strigose [3]; 2250 g a.i/ha, 35 DAA): 100%
- Control of Avena strigose (Avena strigose [3]; 2250 g a.i/ha, 49 DAA): 100%
- Control of Avena strigose (Avena strigose [3]; 2500 g a.i/ha, 28 DAA): 98%
- Control of Avena strigose (Avena strigose [3]; 2500 g a.i/ha, 35 DAA): 100%
- Control of Avena strigose (Avena strigose [3]; 2500 g a.i/ha, 49 DAA): 100%
- percentage (%) control of weeds (Eleusine indica; 1200 g a.i/ha, 28 DAA): 83%
- percentage (%) control of weeds (Eleusine indica; 1200 g a.i/ha, 35 DAA): 78%
- percentage (%) control of weeds (Eleusine indica; 1200 g a.i/ha, 49 DAA): 99%
- percentage (%) control of weeds (Eleusine indica; 1500 g a.i/ha, 28 DAA): 88%
- percentage (%) control of weeds (Eleusine indica; 1500 g a.i/ha, 35 DAA): 88%
- percentage (%) control of weeds (Eleusine indica; 1500 g a.i/ha, 49 DAA): 99%
- percentage (%) control of weeds (Eleusine indica; 1800 g a.i/ha, 28 DAA): 90%
- percentage (%) control of weeds (Eleusine indica; 1800 g a.i/ha, 35 DAA): 91%
- percentage (%) control of weeds (Eleusine indica; 1800 g a.i/ha, 49 DAA): 100%
- percentage (%) control of weeds (Eleusine indica; 2250 g a.i/ha, 28 DAA): 92%
- percentage (%) control of weeds (Eleusine indica; 2250 g a.i/ha, 35 DAA): 93%
- percentage (%) control of weeds (Eleusine indica; 2250 g a.i/ha, 49 DAA): 100%
- percentage (%) control of weeds (Eleusine indica; 2500 g a.i/ha, 28 DAA): 91%
- percentage (%) control of weeds (Eleusine indica; 2500 g a.i/ha, 35 DAA): 92%
- percentage (%) control of weeds (Eleusine indica; 2500 g a.i/ha, 49 DAA): 100%
- percentage (%) control of weeds (Digitaria insularis; 1000 g a.i/ha, 28 DAA): 94%
- percentage (%) control of weeds (Digitaria insularis; 1000 g a.i/ha, 35 DAA): 98%
- percentage (%) control of weeds (Digitaria insularis; 1000 g a.i/ha, 49 DAA): 100%
- percentage (%) control of weeds (Digitaria insularis; 1200 g a.i/ha, 28 DAA): 98%
- percentage (%) control of weeds (Digitaria insularis; 1200 g a.i/ha, 35 DAA): 100%
- percentage (%) control of weeds (Digitaria insularis; 1200 g a.i/ha, 49 DAA): 100%
- percentage (%) control of weeds (Digitaria insularis; 1500 g a.i/ha, 28 DAA): 99%
- percentage (%) control of weeds (Digitaria insularis; 1500 g a.i/ha, 35 DAA): 100%
- percentage (%) control of weeds (Digitaria insularis; 1500 g a.i/ha, 49 DAA): 100%
- percentage (%) control of weeds (Digitaria insularis; 1800 g a.i/ha, 28 DAA): 99%
- percentage (%) control of weeds (Digitaria insularis; 1800 g a.i/ha, 35 DAA): 100%
- percentage (%) control of weeds (Digitaria insularis; 1800 g a.i/ha, 49 DAA): 100%
- percentage (%) control of weeds (Digitaria insularis; 2250 g a.i/ha, 28 DAA): 100%
- percentage (%) control of weeds (Digitaria insularis; 2250 g a.i/ha, 35 DAA): 100%
- percentage (%) control of weeds (Digitaria insularis; 2250 g a.i/ha, 49 DAA): 100%
- percentage (%) control of weeds (Digitaria insularis; 2500 g a.i/ha, 28 DAA): 99%
- percentage (%) control of weeds (Digitaria insularis; 2500 g a.i/ha, 35 DAA): 100%
- percentage (%) control of weeds (Digitaria insularis; 2500 g a.i/ha, 49 DAA): 100%
- Control of Ipomoea hederifolia (Ipomoea hederifolia [4]; 42 DAA): 13.8%
- Control of Ipomoea hederifolia (Ipomoea hederifolia [4]; 49 DAA): 11.3%
- Control of Ipomoea hederifolia (Ipomoea hederifolia [4]; 56 DAA): 8.8%
- Control of Megathyrsus maximus (Megathyrsus maximus; 3200 g a.i/ha, 14 DAA): 79%
- Control of Megathyrsus maximus (Megathyrsus maximus; 3200 g a.i/ha, 21 DAA): 85%
- Control of Megathyrsus maximus (Megathyrsus maximus; 3600 g a.i/ha, 14 DAA): 80%
- Control of Megathyrsus maximus (Megathyrsus maximus; 3600 g a.i/ha, 21 DAA): 86%
- Control of Megathyrsus maximus (Megathyrsus maximus; 4000 g a.i/ha, 14 DAA): 76%
- Control of Megathyrsus maximus (Megathyrsus maximus; 4000 g a.i/ha, 21 DAA): 85%
- Control of Raphanus raphanistrum (Raphanus raphanistrum [5]; 1800 g a.i/ha, 14 DAA): 61%
- Control of Raphanus raphanistrum (Raphanus raphanistrum [5]; 1800 g a.i/ha, 21 DAA): 69%
- Control of Raphanus raphanistrum (Raphanus raphanistrum [5]; 1800 g a.i/ha, 28 DAA): 82%
- Control of Raphanus raphanistrum (Raphanus raphanistrum [5]; 2250 g a.i/ha, 14 DAA): 63%
- Control of Raphanus raphanistrum (Raphanus raphanistrum [5]; 2250 g a.i/ha, 21 DAA): 73%
- Control of Raphanus raphanistrum (Raphanus raphanistrum [5]; 2250 g a.i/ha, 28 DAA): 84%
- Control of Raphanus raphanistrum (Raphanus raphanistrum [5]; 2500 g a.i/ha, 14 DAA): 66%
- Control of Raphanus raphanistrum (Raphanus raphanistrum [5]; 2500 g a.i/ha, 21 DAA): 77%
- Control of Raphanus raphanistrum (Raphanus raphanistrum [5]; 2500 g a.i/ha, 28 DAA): 88%
- Control of Avena strigose (Avena strigose [6]; 42 DAA): 47.5%
- Control of Avena strigose (Avena strigose [6]; 49 DAA): 43.8%
- Control of Avena strigose (Avena strigose [6]; 56 DAA): 37.5%
